Key:
Assay type in all cases: in vivo
[1] = test system: Phakopsora pachyrhizi containing the amino acid substitution F129L in the mitochondrial cytochrome b protein; test: Use Example 1: protective control of soybean rust on soybeans (PHAKPA P2); conditions: inoculated 2 days after spraying, % diseased leaf area
Outline: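 Soybean seedling leaves sprayed to run-off with compound in acetone/DMSO–Wettol–water at the stated concentration, kept 2 days at 23-27° C, then inoculated with Qo-inhibitor-resistant F129L P. pachyrhizi. After 24 h at ~95% RH, 20-24° C, and up to 14 days in greenhouse, % diseased leaf area scored visually.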

[2] = test system: Phakopsora pachyrhizi containing the amino acid substitution F129L in the mitochondrial cytochrome b protein; test: Use Example 2: protective control of soybean rust on soybeans (PHAKPA P6); conditions: inoculated six days after spraying, % diseased leaf area
Outline: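 Compound in acetone and/or DMSO with Wettol (99:1), diluted with water, was sprayed to run-off on potted soybean seedlings. After six days at 23–27°C and 60–80% RH, plants were inoculated with a Qo-resistant F129L strain and held 24 h at about 95% RH. Percent diseased leaf area was scored visually after up to 14 days.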

Puccinia recondita [3] = test: Use Example 4: preventative control of brown rust on wheat (PUCCRT P7); conditions: inoculated seven days after spraying, % diseased leaf area
Outline: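 First two leaves of potted wheat seedlings sprayed to run-off with compound in acetone/DMSO–emulsifier–water, then inoculated with Puccinia recondita spores seven days later. Plants held 24 h dark at 95–99% RH and 20–24 °C, then 9–11 days in greenhouse; diseased leaf area (%) scored visually.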

Puccinia recondita [4] = test: Use Example 3: curative control of brown rust on wheat (PUCCRT K4); conditions: % diseased leaf area
Outline: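 Wheat seedlings inoculated with Puccinia recondita spores, held 24 h at 95–99% RH, 20–24° C in dark, then 3 days in greenhouse before spraying to run-off (curative). Compound in acetone/DMSO–Wettol–water. After 5–7 further days at 20–24° C, 65–70% RH, % diseased leaf area scored visually.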

SMILES | % PHAKPA (F129L) Disease level P2 at 4 ppm [1] | % PHAKPA (F129L) Disease level P2 at 16 ppm [1] | % PHAKPA (F129L) Disease level P6 at 4 ppm [2] | % PHAKPA (F129L) Disease level P6 at 16 ppm [2] | % PUCCRT Disease level P7 at 4 ppm (Puccinia recondita [3]) | % PUCCRT Disease level P7 at 16 ppm (Puccinia recondita [3]) | % PUCCRT Disease level K4 at 4 ppm (Puccinia recondita [4]) | % PUCCRT Disease level K4 at 16 ppm (Puccinia recondita [4])
CCOC/C(=N\OCc1c(Cl)cccc1/C(=N\OC)C(=O)NC)c1ccccc1 [compound 55] | 37% | 1% | 40% | 9% | 53% | 29% | 77% | 47%
CO/C=C(/C(=O)OC)c1cccc(Br)c1CO/N=C(\COC)c1ccccc1 [compound 59] | 0% | 0% | 1% | 0% | 22% | 0% | 11% | 0%
COC/C(=N\OCc1c(Cl)cccc1/C(=N\OC)C(=O)OC)c1ccc(F)cc1F [compound 62] | 5% | 0% | 6% | 0% | 55% | 1% | 37% | 2%
CCOC/C(=N\OCc1c(Br)cccc1/C(=C\OC)C(=O)OC)c1ccc(F)cc1 [compound 66] | 11% | 1% | 13% | 1% | 27% | 4% | 62% | 8%
CO/C=C(/C(=O)OC)c1cccc(Cl)c1CO/N=C(\COC)c1cc(F)c(F)c(F)c1 [compound 67] | 10% | 0% | 14% | 0% | 4% | 3% | 36% | 3%
CNC(=O)/C(=N/OC)c1cccc(Cl)c1CO/N=C(\COC)c1ccc(Cl)c(Cl)c1 [compound 69] | 43% | 7% | 15% | 1% | 7% | 3% | 33% | 3%
CO/C=C(/C(=O)OC)c1cccc(Cl)c1CO/N=C(\COC)c1ccc(Cl)c(Cl)c1 [compound 71] | 31% | 4% | 28% | 7% | 4% | 3% | 34% | 3%
CNC(=O)/C(=N/OC)c1cccc(Cl)c1CO/N=C(\COC)c1cc(F)c(F)c(F)c1 [compound 74] | 12% | 2% | 1% | 0% | 12% | 3% | 37% | 3%
CO/C=C(/C(=O)OC)c1cccc(Cl)c1CO/N=C(\COC)c1cccc(Cl)c1F [compound 76] | 10% | 1% | 0% | 0% | 35% | 3% | 41% | 2%
CO/C=C(/C(=O)OC)c1cccc(Cl)c1CO/N=C(\COC)c1cc(F)cc(F)c1 [compound 80] | 5% | 0% | 0% | 0% | 5% | 3% | 30% | 0%
COC/C(=N\OCc1c(Cl)cccc1/C(=N\OC)C(=O)OC)c1c(F)cccc1F [compound 83] | 2% | 0% | 0% | 0% | 32% | 12% | 37% | 18%
CNC(=O)/C(=N/OC)c1cccc(Cl)c1CO/N=C(\COC)c1ccc(F)cc1F [compound 84] | 5% | 0% | 2% | 0% | 35% | 5% | 58% | 9%
CNC(=O)/C(=N/OC)c1cccc(Cl)c1CO/N=C(\COC)c1cc(F)cc(F)c1 [compound 86] | 17% | 0% | 10% | 0% | 19% | 4% | 52% | 4%
CO/C=C(/C(=O)OC)c1cccc(Cl)c1CO/N=C(\COC)c1cccc(F)c1F [compound 87] | 5% | 0% | 2% | 0% | 28% | 5% | 67% | 10%
CO/C=C(/C(=O)OC)c1cccc(Cl)c1CO/N=C(\COC)c1ccc(F)c(F)c1 [compound 92] | 0% | 0% | 12% | 0% | 3% | 3% | 6% | 0%
CO/C=C(/C(=O)OC)c1cccc(Cl)c1CO/N=C(\COC)c1ccc(F)cc1Cl [compound 93] | 13% | 1% | 43% | 15% | 53% | 16% | 83% | 19%
